According to patent US20240424113A1, “CONJUGATES COMPRISING ANTIFUNGALS AND HEAT SHOCK PROTEIN 90 (HSP90) INHIBITORS AND METHODS OF USE THEREOF” (Bright Angel Therapeutics Inc., priority 2021, published 2024):
Converted amounts (≈) assume the structure as drawn.

Tests used:
[1] = target: Hsp90 Nuclear Binding Domain (NBD) (Candida albicans (strain SC5314 / ATCC MYA-2876) (Yeast), UniProt P46598); assay: Surface Plasmon Resonance (SPR) binding, C. albicans Hsp90 NBD; settings: biotinylated Hsp90 NBD on streptavidin chip, 25° C., 1:1 binding model
Summary of the method: (§1)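 Biacore S200 at 25° C; AviTag-biotinylated recombinant Hsp90 NBD captured on streptavidin chip at 2000-2500 RU. Compound dilution series run in HBS-P pH 7.4 with 2% DMSO at 40 μL/min, 60 s association and 600 s dissociation. Sensorgrams fitted to a 1:1 binding model.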

[2] = target: Hsp90 Nuclear Binding Domain (NBD) (Aspergillus fumigatus, UniProt P40292); assay: Surface Plasmon Resonance (SPR) binding, A. fumigatus Hsp90 NBD; settings: biotinylated Hsp90 NBD on streptavidin chip, 25° C., 1:1 binding model; NB undefined
Summary of the method: as §1

CaCl2 = assay: Antifungal sensitivity testing (broth microdilution MIC); type: cell-based; settings: 96-well broth microdilution
Summary of the method: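 Broth microdilution MIC per a modified published protocol; compounds dissolved in DMSO, fluconazole in water; duplicates in at least two independent experiments. Fungicidal activity checked by spotting MIC-plate cultures onto YPD agar, read after 24 h at 30° C.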

HepG2 cells = assay: Mammalian cell toxicity (Cell Titer-Glo); type: cell-based
Method: Mammalian Cell Toxicity. HepG2 cells were seeded overnight at 500 cells/well in 384-well plate, then incubated with compounds (10-point concentration titration) for 48 h. Cell Titer-Glo® reagent ([…]) was added to each well and after 10-minute incubation at room temperature the luminescent signal was measured using an Envision plate reader (Perkin Elmer).

Chain of Hsp90 Nuclear Binding Domain (NBD) (Aspergillus fumigatus, UniProt P40292) (P40292 whole entry, looked up, the tested form may be a part): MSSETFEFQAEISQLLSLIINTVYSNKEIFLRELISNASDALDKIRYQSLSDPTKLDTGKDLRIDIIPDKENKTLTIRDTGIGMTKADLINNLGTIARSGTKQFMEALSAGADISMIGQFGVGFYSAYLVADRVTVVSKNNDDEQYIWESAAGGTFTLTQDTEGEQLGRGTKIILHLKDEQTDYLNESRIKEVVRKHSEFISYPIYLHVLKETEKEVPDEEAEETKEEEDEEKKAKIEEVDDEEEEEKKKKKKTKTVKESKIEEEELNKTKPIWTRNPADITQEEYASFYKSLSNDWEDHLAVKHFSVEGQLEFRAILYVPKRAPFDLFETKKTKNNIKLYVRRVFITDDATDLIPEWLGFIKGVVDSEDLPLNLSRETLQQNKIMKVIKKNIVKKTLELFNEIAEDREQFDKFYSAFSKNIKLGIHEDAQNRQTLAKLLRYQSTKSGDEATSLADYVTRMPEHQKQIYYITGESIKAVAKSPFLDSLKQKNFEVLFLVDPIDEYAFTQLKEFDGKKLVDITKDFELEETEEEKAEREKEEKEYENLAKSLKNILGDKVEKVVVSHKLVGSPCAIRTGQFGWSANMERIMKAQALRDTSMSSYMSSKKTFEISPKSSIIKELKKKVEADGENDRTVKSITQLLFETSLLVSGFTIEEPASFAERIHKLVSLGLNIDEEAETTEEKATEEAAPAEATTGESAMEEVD
Chain of Hsp90 Nuclear Binding Domain (NBD) (Candida albicans (strain SC5314 / ATCC MYA-2876) (Yeast), UniProt P46598) (P46598 1-218 limits assumed): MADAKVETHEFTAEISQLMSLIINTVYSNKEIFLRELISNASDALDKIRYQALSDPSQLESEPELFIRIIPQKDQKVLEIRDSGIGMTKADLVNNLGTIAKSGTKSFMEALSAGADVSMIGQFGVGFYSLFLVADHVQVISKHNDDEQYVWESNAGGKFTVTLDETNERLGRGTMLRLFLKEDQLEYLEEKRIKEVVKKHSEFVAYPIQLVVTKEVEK

Nc1nc2sc(CNC3CCN(CCC(O)(Cn4cncn4)c4ccc(F)cc4F)CC3)cc2n(-c2ccc3c(c2)N(c2ccccc2)CCO3)c1=O (stereo not shown) [Compound I-72, 3-amino-6-(((1-(3-(2,4-difluorophenyl)-3-hydroxy-4-(1H-1,2,4-triazol-1-yl)butyl)piperidin-4-yl)amino)methyl)-1-(4-phenyl-3,4-dihydro-2H-benzo[b][1,4]oxazin-6-yl)thieno[2,3-b]pyrazin-2(1H)-one] was tested, and the Kd [1] was 121 nM, the Kd [2] was 197 nM and the MIC50 (CaCl2; Table 4) was 7.5 µM (≈ 5.55 µg/mL). The MIC50 (CaCl2; Table 6) was 7.5 µM (≈ 5.55 µg/mL) and the “HepG2 MIC50” value (HepG2 cells; Table 6, 48 h incubation) was 4.6 µM.
In the case of Nc1nc2sc(CNC3CCN(CC(=O)OCCC(O)(Cn4cncn4)c4ccc(F)cc4F)CC3)cc2n(-c2ccc3c(c2)N(c2ccccc2)CCO3)c1=O (stereo not shown) [Compound I-136, 3-(2,4-difluorophenyl)-3-hydroxy-4-(1H-1,2,4-triazol-1-yl)butyl 2-(4-(((3-amino-2-oxo-1-(4-phenyl-3,4-dihydro-2H-benzo[b][1,4]oxazin-6-yl)-1,2-dihydrothieno[2,3-b]pyrazin-6-yl)methyl)amino)piperidin-1-yl)acetate], the Kd [1] is reported as 271 nM, the Kd [2] is reported as 529 nM and the MIC50 (CaCl2; Table 4) is reported as 6.25 µM (≈ 4.99 µg/mL). For the same compound, the MIC50 (CaCl2; Table 6) was 6.25 µM (≈ 4.99 µg/mL) and the “HepG2 MIC50” value (HepG2 cells; Table 6, 48 h incubation) was 19.4 µM.
Work on Nc1nc2scc(C(=O)NC3CCN(CC(O)(Cn4cncn4)c4ccc(F)cc4F)CC3)c2n(-c2ccc3c(c2)N(c2ccccc2)CCO3)c1=O (stereo not shown) [Compound I-18, 3-amino-N-(1-(2-(2,4-difluorophenyl)-2-hydroxy-3-(1H-1,2,4-triazol-1-yl)propyl)piperidin-4-yl)-2-oxo-1-(4-phenyl-3,4-dihydro-2H-benzo[b][1,4]oxazin-6-yl)-1,2-dihydrothieno[2,3-b]pyrazine-7-carboxamide] yielded a Kd [1] of 459 nM, a Kd [2] of 741 nM and an MIC50 (CaCl2; Table 4) of 20 µM (≈ 14.8 µg/mL). For the same compound, the MIC50 (CaCl2; Table 6) was 20 µM (≈ 14.8 µg/mL) and the “HepG2 MIC50” value (HepG2 cells; Table 6, 48 h incubation) was >50 µM.
Nc1nc2sc(C(=O)NC3CCN(C[C@](O)(Cn4cncn4)c4ccc(F)cc4F)CC3)cc2n(-c2ccc3c(c2)N(c2ccccc2)CCC3)c1=O [Compound I-21, (S)-3-amino-N-(1-(2-(2,4-difluorophenyl)-2-hydroxy-3-(1H-1,2,4-triazol-1-yl)propyl)piperidin-4-yl)-2-oxo-1-(1-phenyl-1,2,3,4-tetrahydroquinolin-7-yl)-1,2-dihydrothieno[2,3-b]pyrazine-6-carboxamide] was tested, and the Kd [1] was 6.7 nM, the Kd [2] was 37.3 nM and the MIC50 (CaCl2; Table 4) was 0.085 µM (≈ 0.0627 µg/mL). For the same compound, the MIC50 (CaCl2; Table 6) was 0.09 µM (≈ 0.0664 µg/mL), the “HepG2 MIC50” value (HepG2 cells; Table 5, 48 h incubation) was >50 µM and the “HepG2 MIC50” value (HepG2 cells; Table 6, 48 h incubation) was >50 µM.
With Nc1nc2sc(-c3noc(C(=O)NN4CCN(CC(O)(Cn5cncn5)c5ccc(F)cc5F)CC4)n3)cc2n(-c2ccc3c(c2)N(c2ccccc2)CCO3)c1=O (stereo not shown) [Compound I-54, 3-(3-amino-2-oxo-1-(4-phenyl-3,4-dihydro-2H-benzo[b][1,4]oxazin-6-yl)-1,2-dihydrothieno[2,3-b]pyrazin-6-yl)-N-(4-(2-(2,4-difluorophenyl)-2-hydroxy-3-(1H-1,2,4-triazol-1-yl)propyl)piperazin-1-yl)-1,2,4-oxadiazole-5-carboxamide] the Kd [1] was 73.5 nM, the Kd [2] was 339 nM and the MIC50 (CaCl2; Table 4) was 0.6 µM (≈ 0.485 µg/mL). The MIC50 (CaCl2; Table 6) was 0.6 µM (≈ 0.485 µg/mL), the “HepG2 MIC50” value (HepG2 cells; Table 5, 48 h incubation) was >10 µM and the “HepG2 MIC50” value (HepG2 cells; Table 6, 48 h incubation) was >10 µM.
Nc1nc2sc(CNCC3CCN(C[C@](O)(Cn4cncn4)c4ccc(F)cc4F)CC3)cc2n(-c2ccc3c(c2)N(c2ccccc2)CCO3)c1=O [Compound I-131, (S)-3-amino-6-((((1-(2-(2,4-difluorophenyl)-2-hydroxy-3-(1H-1,2,4-triazol-1-yl)propyl)piperidin-4-yl)methyl)amino)methyl)-1-(4-phenyl-3,4-dihydro-2H-benzo[b][1,4]oxazin-6-yl)thieno[2,3-b]pyrazin-2(1H)-one] was tested, and the MIC50 (CaCl2; Table 4) was 1.25 µM (≈ 0.925 µg/mL), the MIC50 (CaCl2; Table 6) was 1.25 µM (≈ 0.925 µg/mL) and the “HepG2 MIC50” value (HepG2 cells; Table 5, 48 h incubation) was 9 µM. For the same compound, the “HepG2 MIC50” value (HepG2 cells; Table 6, 48 h incubation) was 9 µM.
